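48-hour exposure; five concentrations; linearly interpolated endpoints. At the GI50, growth is halved.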 Active and inactive are the calls of the source. Cut-off read from the data, not from the text of the source: active = GI50 up to about 1.1 µM and inactive = higher.
Columns and labels:
Experiment in all cases: growth of human tumour cells (NCI), 48 h
786-0 = test system: 786-0
HCC 2998 = test system: HCC 2998
HT-29 = test system: HT-29
K562 = test system: K562
M14 = test system: M14
Malme-3M = test system: Malme-3M
NCI-H522 = test system: NCI-H522
OVCAR-3 = test system: OVCAR-3
OVCAR-4 = test system: OVCAR-4
OVCAR-5 = test system: OVCAR-5
RXF 393 = test system: RXF 393
SK-MEL-5 = test system: SK-MEL-5
SW-620 = test system: SW-620
UACC-62 = test system: UACC-62
HOP-92 = test system: HOP-92
IGROV-1 = test system: IGROV-1
LOX IMVI = test system: LOX IMVI
NCI-H226 = test system: NCI-H226
RPMI-8226 = test system: RPMI-8226

Measured: GI50

CN(C)c1ccc2c(NCCCCCCNc3ccnc4cc(N(C)C)ccc34)ccnc2c1
inactive: 786-0 20.8 µM | HCC 2998 15.7 µM | HT-29 19.2 µM | K562 2.74 µM | M14 22.6 µM | Malme-3M 2.85 µM | NCI-H522 6.75 µM | OVCAR-3 13.7 µM | OVCAR-4 11.9 µM | OVCAR-5 25.2 µM | RXF 393 16 µM | SK-MEL-5 12.2 µM | SW-620 23.3 µM | UACC-62 > 100 µM

CCOC(=O)/C(=N\Nc1ccc(-n2c(C)nc3ccc(Br)cc3c2=O)cc1)C(C)=O
inactive: 786-0 59.2 µM | HOP-92 38 µM | HT-29 > 100 µM | IGROV-1 > 100 µM | K562 35.2 µM | LOX IMVI > 100 µM | M14 62.4 µM | NCI-H226 77.8 µM | OVCAR-3 > 100 µM | OVCAR-5 > 100 µM | RPMI-8226 16.4 µM | SK-MEL-5 13.1 µM | SW-620 > 100 µM | UACC-62 46.9 µM

C[C@H]1ON2CCC[C@@H]2[C@@H]1C(=O)N1C2CC3CCC2(CS1(=O)=O)C3(C)C (stereo not given in full)
inactive: 786-0 > 100 µM | HCC 2998 > 100 µM | HT-29 > 100 µM | IGROV-1 > 100 µM | K562 > 100 µM | LOX IMVI > 100 µM | M14 > 100 µM | Malme-3M > 100 µM | NCI-H226 > 100 µM | NCI-H522 > 100 µM | OVCAR-3 > 100 µM | OVCAR-4 > 100 µM | OVCAR-5 > 100 µM | RXF 393 > 100 µM | SK-MEL-5 > 100 µM | SW-620 > 100 µM | UACC-62 > 100 µM

CN(C)C(=O)Oc1ccc[n+](C)c1 [PYRIDOSTIGMINE BROMIDE]
inactive: 786-0 > 100 µM | HCC 2998 > 100 µM | HT-29 > 100 µM | IGROV-1 > 100 µM | K562 > 100 µM | LOX IMVI > 100 µM | Malme-3M > 100 µM | NCI-H226 > 100 µM | NCI-H522 > 100 µM | OVCAR-3 > 100 µM | OVCAR-4 > 100 µM | OVCAR-5 > 100 µM | RPMI-8226 > 100 µM | RXF 393 > 100 µM | SK-MEL-5 > 100 µM | SW-620 > 100 µM | UACC-62 > 100 µM

S=C(N1CCN(c2ccc(Cl)c(Cl)c2)CC1)N1CCN(c2ccc(Cl)c(Cl)c2)CC1
inactive: 786-0 10.8 µM | HCC 2998 13.7 µM | HT-29 9.42 µM | IGROV-1 10.7 µM | K562 12.2 µM | M14 15.6 µM | Malme-3M 14.2 µM | NCI-H226 11.1 µM | NCI-H522 10.9 µM | OVCAR-3 13.5 µM | OVCAR-4 13.7 µM | OVCAR-5 19.6 µM | RPMI-8226 18 µM | RXF 393 14.3 µM | SK-MEL-5 15.1 µM | SW-620 17.5 µM | UACC-62 15.5 µM

O=C(N/N=C1/C(=O)c2c3ccccc3cc3cccc1c23)c1cccc(Cl)c1
inactive: 786-0 56.6 µM | HCC 2998 > 100 µM | HOP-92 > 100 µM | HT-29 > 100 µM | IGROV-1 2.78 µM | K562 > 100 µM | LOX IMVI > 100 µM | M14 > 100 µM | NCI-H226 > 100 µM | OVCAR-3 > 100 µM | OVCAR-4 > 100 µM | OVCAR-5 > 100 µM | RPMI-8226 > 100 µM | RXF 393 > 100 µM | SK-MEL-5 > 100 µM | SW-620 > 100 µM | UACC-62 69.7 µM

CC(=O)/C(=C/n1c(=S)sc2ccccc21)C(=O)Nc1ccccc1C
inactive: 786-0 > 100 µM | HCC 2998 > 100 µM | HOP-92 41.1 µM | HT-29 > 100 µM | IGROV-1 59.8 µM | LOX IMVI > 100 µM | M14 > 100 µM | NCI-H226 31.1 µM | OVCAR-3 59.4 µM | OVCAR-4 > 100 µM | OVCAR-5 > 100 µM | RXF 393 > 100 µM | SK-MEL-5 39.7 µM | SW-620 > 100 µM | UACC-62 > 100 µM

CC(Nc1ncc2c(n1)-c1ccccc1OC2)C(=O)O (stereo not given)
inactive: 786-0 > 100 µM | HOP-92 35.9 µM | HT-29 39.5 µM | IGROV-1 25.2 µM | K562 99.8 µM | LOX IMVI > 100 µM | M14 > 100 µM | Malme-3M > 100 µM | NCI-H226 61.7 µM | OVCAR-3 27.9 µM | OVCAR-4 > 100 µM | OVCAR-5 > 100 µM | RPMI-8226 34.2 µM | RXF 393 > 100 µM | SK-MEL-5 > 100 µM | SW-620 > 100 µM | UACC-62 > 100 µM

C[n+]1c(-c2ccc(/C=N/NC(=S)N/N=C/c3ccc(-c4cn5ccsc5[n+]4C)cc3)cc2)cn2ccsc21
inactive: 786-0 > 100 µM | HCC 2998 > 100 µM | HT-29 75.5 µM | IGROV-1 > 100 µM | K562 > 10 µM | M14 > 100 µM | NCI-H522 > 100 µM | OVCAR-4 > 100 µM | OVCAR-5 > 100 µM | RPMI-8226 62.1 µM | SK-MEL-5 > 100 µM | SW-620 > 100 µM

O=C1CN(c2cccc(C(F)(F)F)c2)C(=O)CN1NCNN1CC(=O)N(c2cccc(C(F)(F)F)c2)CC1=O
inactive: 786-0 > 100 µM | HCC 2998 > 100 µM | HT-29 > 100 µM | IGROV-1 > 100 µM | K562 > 100 µM | M14 > 100 µM | NCI-H522 52.5 µM | OVCAR-5 > 100 µM | RPMI-8226 > 100 µM | SK-MEL-5 > 100 µM | SW-620 > 100 µM

CN(C)CCn1c(=O)oc2cc(C(=O)CN3CCOCC3)ccc21
inactive: 786-0 > 100 µM | HT-29 > 100 µM | IGROV-1 > 100 µM | K562 > 100 µM | LOX IMVI > 100 µM | M14 > 100 µM | Malme-3M > 100 µM | NCI-H226 > 100 µM | OVCAR-3 > 100 µM | OVCAR-5 > 100 µM | RPMI-8226 > 100 µM | RXF 393 > 100 µM | SK-MEL-5 > 100 µM | SW-620 > 100 µM | UACC-62 > 100 µM

O=C1NCC2(CCN(CC3COc4ccccc4O3)CC2)N1c1ccccc1 (stereo not given)
inactive: 786-0 > 100 µM | HCC 2998 > 100 µM | HT-29 > 100 µM | IGROV-1 > 100 µM | K562 80.4 µM | LOX IMVI > 100 µM | M14 > 100 µM | Malme-3M > 100 µM | NCI-H226 > 100 µM | NCI-H522 > 100 µM | OVCAR-3 > 100 µM | OVCAR-4 > 100 µM | OVCAR-5 > 100 µM | RPMI-8226 > 100 µM | RXF 393 > 100 µM | SK-MEL-5 > 100 µM | SW-620 > 100 µM | UACC-62 > 100 µM

S=C1Nc2ccccc2SC1c1ccccc1 (stereo not given)
inactive: 786-0 34.9 µM | HT-29 > 100 µM | IGROV-1 > 100 µM | K562 94.8 µM | LOX IMVI 49.7 µM | M14 > 100 µM | Malme-3M 92.3 µM | NCI-H226 28.6 µM | NCI-H522 > 100 µM | OVCAR-3 30.5 µM | OVCAR-4 46 µM | OVCAR-5 > 100 µM | RPMI-8226 > 100 µM | RXF 393 16.6 µM | SK-MEL-5 > 100 µM | UACC-62 > 100 µM
